# Measurements taken from patent US11596611B2, “Hepatitis B antiviral agents” (ENANTA PHARMACEUTICALS, INC., priority 2017, dated 2023).
# pEC50: −log10 of the molar value.
# Experiments:
# [1] = Compound toxicity by ATPLite (total ATP levels); assay type: cell-based; conditions: human, three days after compound addition, 50% reduction of total ATP
# Method: Methods: HepAD38 cells are maintained as previously reported (Ladner et al, Antimicrob. Agents Chemother. 1997, […], 1715). Briefly, cells are passaged upon attaining confluency in DMEM/F12 media in the presence of 10% FBS, Penn/Strep, 250 μg/mL G418, and 1 ug/ml tetracycline. Novel compounds are screened by first washing cells three times with PBS to remove tetracycline, and plating in 96 well plates at 35,000 cells/well. Compounds dissolved in DMSO are then diluted 1:200 into wells containing cells. Five days after compound addition, material is harvested for analysis. For an extended 8 days analysis, cells are plated and treated as described above, but media and compound are refreshed on d2 and d5 post initial treatment.
# Compound toxicity is evaluated by seeding cells at 15,000 cells/well and treating with compound as described above.
# HBV = assay: HepAD38 antiviral assay: reduction of viral product accumulation (virion DNA by qPCR, HBsAg or HBeAg by ELISA); assay type: cell-based, hepatitis B virus; conditions: Hepatitis B virus, 120 h; HepAD38 cells, five days after compound addition; 50% reduction of viral product vs no drug controls; read-out: HepAD38 EC50
# How it was run: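 Readouts were qPCR of lysed virion DNA plus ELISA for HBsAg or HBeAg, samples diluted into linear range. HepAD38 cells, washed free of tetracycline, received compound diluted 1:200 from DMSO for 5 days; 8-day variant refreshed media and compound on days 2 and 5.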
SMILES,CC50 at 3 days ([1]; class symbols) [nM],pEC50 (HBV),CC50 at 3 days ([1]; numeric bounds) [nM]
[2H]c1cc(F)c(F)c([2H])c1NC(=O)c1ccc(Cl)c(S(=O)(=O)[C@@H]2C([2H])([2H])C3CC[C@@H](C2([2H])[2H])[C@@]3(O)[C@@H](O)[C@H](C)O)c1 [Example 338],> 25000,> 6.98,
O=C(Nc1ccc(F)c(F)c1)c1ccc(Cl)c(S(=O)(=O)[C@H]2CC3CCC(C2)[C@]3(O)C(O)c2ncco2)c1 (stereo partly shown) [Example 290],> 25000,> 6.98,
"C[C@@H](O)[C@@H](O)[C@]1(O)C2CCC1C[C@@H](S(=O)(=O)c1cc(C(=O)Nc3ccc(F)c(F)c3)ccc1Cl)C2 (single isomer, unassigned) [Example 180]",> 25000,> 6.98,
[2H]C1([2H])C2CCC(C([2H])([2H])[C@]1([2H])S(=O)(=O)c1cc(C(=O)Nc3ccc(F)c(F)c3)ccc1Cl)[C@@]2(O)CO [Example 279],> 25000,> 6.98,
O=C(Nc1ccc(F)c(F)c1)c1ccc(Cl)c(S(=O)(=O)[C@H]2CC3CCC(C2)[C@]3(O)C(O)c2ccc(F)cn2)c1 (stereo partly shown) [Example 291],> 25000,> 6.98,
C/C=C/C(=O)NC[C@]1(O)C2CCC1C[C@@H](S(=O)(=O)c1cc(C(=O)Nc3cc(F)c(F)c(F)c3)ccc1Cl)C2 [Example 12],,> 6.98,> 3000
O=C(Nc1ccc(F)c(F)c1)c1ccc(Cl)c(S(=O)(=O)[C@H]2CC3CCC(C2)[C@]3(O)CNC(=O)c2nccs2)c1 [Example 168],10000 to 25000,> 6.98,
C[C@H](O)COC[C@]1(O)C2CCC1C[C@@H](S(=O)(=O)c1cc(C(=O)Nc3ccc(F)c(F)c3)ccc1Cl)C2 [Example 176],,> 6.98,> 6250
CC(=O)N(C[C@H](C)O)C[C@]1(O)C2CCC1C[C@@H](S(=O)(=O)c1cc(C(=O)Nc3cc(F)c(F)c(F)c3)ccc1Cl)C2 [Example 125],,> 6.98,> 6250
COCCNC(=O)C[C@]1(O)C2CCC1C[C@@H](S(=O)(=O)c1cc(C(=O)Nc3cc(F)c(F)c(F)c3)ccc1Cl)C2 [Example 114],,> 6.98,> 6250
C[C@H](O)[C@@H](O)[C@]1(O)C2CCC1C[C@@H](S(=O)(=O)c1cc(C(=O)Nc3ccc(F)c(F)c3)ccc1Cl)C2 (mixture of isomers) [Example 173],,> 6.98,> 6250
CC(=O)OC[C@H](O)[C@@H](O)[C@@]1(O)C2CC[C@H]1C[C@H](S(=O)(=O)c1cc(C(=O)Nc3cc(F)c(F)c(F)c3)ccc1Cl)C2 (relative stereo) [Example 68],> 25000,> 6.98,
[N-]=[N+]=NCC(O)[C@]1(O)C2CCC1C[C@@H](S(=O)(=O)c1cc(C(=O)Nc3cc(F)c(F)c(F)c3)ccc1Cl)C2 (mixture of isomers) [Example 11],,> 6.98,> 6250
O=C(Nc1cc(F)c(F)c(F)c1)c1ccc(Cl)c(S(=O)(=O)[C@H]2CC3CCC(C2)[C@]3(O)COC(CCO)CCO)c1 [Example 61],,> 6.98,> 6250
CC=CCNC(=O)C[C@]1(O)C2CCC1C[C@@H](S(=O)(=O)c1cc(C(=O)Nc3cc(F)c(F)c(F)c3)ccc1Cl)C2 [Example 53],,> 6.98,> 6250
O=C(C[C@]1(O)C2CCC1C[C@@H](S(=O)(=O)c1cc(C(=O)Nc3cc(F)c(F)c(F)c3)ccc1Cl)C2)NC1(CO)CC1 [Example 117],,> 6.98,> 6250
CC(C)(O)CNC(=O)C[C@]1(O)C2CCC1C[C@@H](S(=O)(=O)c1cc(C(=O)Nc3cc(F)c(F)c(F)c3)ccc1Cl)C2 [Example 71],,> 6.98,> 3000
CC(C)(O)[C@@H](O)[C@@]1(O)C2CC[C@H]1C[C@H](S(=O)(=O)c1cc(C(=O)Nc3ccc(F)c(F)c3)ccc1Cl)C2 [Example 332],> 25000,> 6.98,

SMILES,CC50 at 3 days ([1]; class symbols) [nM],pEC50 (HBV),CC50 at 3 days ([1]; numeric bounds) [nM]
CC(C)(O)CNC(=O)C[C@]1(O)C2CCC1C[C@@H](S(=O)(=O)c1cc(C(=O)Nc3ccc(F)c(F)c3)ccc1Cl)C2 [Example 187],,> 6.98,> 12500
C[C@H](O)[C@@H](O)COC[C@]1(O)C2CCC1C[C@@H](S(=O)(=O)c1cc(C(=O)Nc3ccc(F)c(F)c3)ccc1Cl)C2 [Example 179],> 25000,> 6.98,
COC(C)(C)CNC(=O)C[C@]1(O)C2CCC1C[C@@H](S(=O)(=O)c1cc(C(=O)Nc3ccc(F)c(F)c3)ccc1Cl)C2 [Example 191],> 25000,> 6.98,
O=C(Nc1ccc(F)c(F)c1)c1ccc(F)c(S(=O)(=O)[C@@H]2CC3CC[C@@H](C2)[C@@]3(O)CO)c1 [Example 325],> 25000,> 6.98,
O=C(Nc1ccc(F)c(F)c1)c1ccc(Cl)c(S(=O)(=O)[C@H]2CC3CCC(C2)[C@]3(O)C2CO2)c1 (stereo partly shown) [Example 308],> 25000,> 6.98,
C=C1CC1C(=O)NC[C@@]1(O)C2CC[C@H]1C[C@H](S(=O)(=O)c1cc(C(=O)Nc3cc(F)c(F)c(F)c3)ccc1Cl)C2 (stereo partly shown) [Example 66],10000 to 25000,> 6.98,
O=C(C[C@]1(O)C2CCC1C[C@@H](S(=O)(=O)c1cc(C(=O)Nc3cc(F)c(F)c(F)c3)ccc1Cl)C2)N[C@@H]1CCOC1 [Example 73],,> 6.98,> 6250
C[C@@H](O)CNC(=O)C[C@]1(O)C2CCC1C[C@@H](S(=O)(=O)c1cc(C(=O)Nc3ccc(F)c(C(F)F)c3)ccc1Cl)C2 [Example 155],> 25000,> 6.98,
C[C@H](O)CNC(=O)C[C@]1(O)C2CCC1C[C@@H](S(=O)(=O)c1cc(C(=O)Nc3ccc(F)c(F)c3)ccc1Cl)C2 [Example 185],,> 6.98,> 12500
"C[C@@H](O)COC[C@]1(O)C2CCC1C[C@@H](S(=O)(=O)c1cc(C(=O)Nc3cc(F)c(F)c(F)c3)ccc1Cl)C2 (single isomer, unassigned) [Example 130]",,> 6.98,> 12500
CN1CCC[C@@H]1C(=O)NC[C@]1(O)C2CCC1C[C@@H](S(=O)(=O)c1cc(C(=O)Nc3cc(F)c(F)c(F)c3)ccc1Cl)C2 [Example 1],,> 6.98,> 3000
C[C@@H](O)CNC(=O)C[C@]1(O)C2CCC1C[C@@H](S(=O)(=O)c1cc(C(=O)Nc3cc(F)c(F)c(F)c3)ccc1Cl)C2 [Example 113],,> 6.98,> 6250
C=CCS(=O)(=O)NC[C@]1(O)C2CCC1C[C@@H](S(=O)(=O)c1cc(C(=O)Nc3cc(F)c(F)c(F)c3)ccc1Cl)C2 [Example 39],,> 6.98,> 6250
CC(=O)[C@@H](O)[C@@]1(O)C2CC[C@H]1C[C@H](S(=O)(=O)c1cc(C(=O)Nc3ccc(F)c(F)c3)ccc1Cl)C2 [Example 331],> 25000,> 6.98,
O=C(Nc1cc(F)c(F)c(F)c1)c1ccc(Cl)c(S(=O)(=O)[C@H]2C3CC[C@H]2C[C@](O)(CCCO)C3)c1 [Example 9],,> 6.98,> 6250
O=C(Nc1cc(F)c(F)c(F)c1)c1ccc(Cl)c(S(=O)(=O)[C@H]2CC3CCC(C2)[C@]3(O)CNC(=O)C2CCOCC2)c1 [Example 89],,> 6.98,> 6250
Cc1cc(Cl)c(S(=O)(=O)[C@H]2CC3CCC(C2)[C@]3(O)[C@H](O)[C@H](C)O)cc1C(=O)Nc1ccc(F)c(F)c1 [Example 335],> 25000,> 6.98,
